Several values for one entry are separate records, joined by “and”; a condition that tells them apart may be missing. Equal values may be shown once.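 Tested at 5 concentrations; 48 h exposure; 96-well plates; endpoints linearly interpolated, else capped at highest concentration. The concentration for 50% growth inhibition is given as GI50.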 Activity calls are given as the source filed them. Rule as the data show it: active = GI50 up to about 1.1 µM and inactive = higher. Non-standard residues stand in square brackets, D forms with d. Residues, ends and D or L forms follow the SMILES beside them. *: point of attachment. Bn2Val = CC(C)[C@@H](C(=O)*)N(Cc1ccccc1)Cc1ccccc1; NMeV = CN[C@H](C(=O)O)C(C)C; X32 = COc1ccc(CN*)c(OC)c1; dNMeA = CN[C@H](C)C(=O)O
Tests used:
Assay in all cases: NCI-60 cell line screen, 48 h
786-0 = test system: 786-0
A498 = test system: A498
CAKI-1 = test system: CAKI-1
CCRF-CEM = test system: CCRF-CEM
COLO 205 = test system: COLO 205
DU-145 = test system: DU-145
EKVX = test system: EKVX
HCC 2998 = test system: HCC 2998
HL-60 = test system: HL-60
HT-29 = test system: HT-29
K562 = test system: K562
MCF7 = test system: MCF7
Malme-3M = test system: Malme-3M
OVCAR-4 = test system: OVCAR-4
OVCAR-5 = test system: OVCAR-5
SF-268 = test system: SF-268
SK-MEL-2 = test system: SK-MEL-2
SNB-75 = test system: SNB-75
TK-10 = test system: TK-10
UACC-257 = test system: UACC-257

Structure (SMILES) | GI50 (786-0) | GI50 (A498) | GI50 (CAKI-1) | GI50 (CCRF-CEM) | GI50 (COLO 205) | GI50 (DU-145) | GI50 (EKVX) | GI50 (HCC 2998) | GI50 (HL-60) | GI50 (HT-29) | GI50 (K562) | GI50 (MCF7) | GI50 (Malme-3M) | GI50 (OVCAR-4) | GI50 (OVCAR-5) | GI50 (SF-268) | GI50 (SK-MEL-2) | GI50 (SNB-75) | GI50 (TK-10) | GI50 (UACC-257)
OC(CC(c1ccccc1)c1ccc(Cl)cc1)c1ccc(Cl)cc1 (centres undefined) | 34.1 µM (inactive) | 25.8 µM (inactive) | 27.8 µM (inactive) | 36.8 µM (inactive) | 18.5 µM (inactive) | 44.9 µM (inactive) | 30.5 µM (inactive) | 45.5 µM (inactive) | 24.9 µM (inactive) | 35.6 µM (inactive) | 32.4 µM (inactive) | 28.4 µM (inactive) | 25.5 µM (inactive) | 31.3 µM (inactive) | 24.3 µM (inactive) | 37.1 µM (inactive) | 24 µM (inactive) | 29.4 µM (inactive) | 38 µM (inactive) | 29.4 µM (inactive)
COc1ccc(Cn2c3ccc([N+](=O)[O-])cc3c(=O)n2Cc2ccccn2)cc1 | > 100 µM (inactive) | > 100 µM (inactive) | > 100 µM (inactive) | 62.5 µM (inactive) | > 100 µM (inactive) | > 100 µM (inactive) | 66.5 µM (inactive) | > 100 µM (inactive) | 28.9 µM (inactive) | > 100 µM (inactive) | 67 µM (inactive) | > 100 µM (inactive) | 80.9 µM (inactive) | 56.1 µM (inactive) | > 100 µM (inactive) | > 100 µM (inactive) | > 100 µM (inactive) | 37.8 µM (inactive) | > 100 µM (inactive) | 55.1 µM (inactive)
C[C@@H]1C[C@@]2(O[C@@H]2C)C(=O)O[C@@H]2CCN3CC=C(COC(=O)[C@]1(C)O)[C@H]23 | > 100 µM (inactive) | > 100 µM (inactive) | > 100 µM (inactive) | > 100 µM (inactive) | > 100 µM (inactive) | > 100 µM (inactive) | > 100 µM (inactive) | > 100 µM (inactive) | > 100 µM (inactive) | > 100 µM (inactive) | > 100 µM (inactive) | > 100 µM (inactive) | > 100 µM (inactive) | > 100 µM (inactive) | > 100 µM (inactive) | > 100 µM (inactive) | > 100 µM (inactive) | > 100 µM (inactive) | > 100 µM (inactive) | > 100 µM (inactive)
Nc1ccc(C(=O)CC(N)C(=O)O)cc1O (centres undefined) | > 100 µM (inactive) | > 100 µM (inactive) | > 100 µM (inactive) | > 100 µM (inactive) | > 100 µM (inactive) | > 100 µM (inactive) | > 100 µM (inactive) | > 100 µM (inactive) | > 100 µM (inactive) | > 100 µM (inactive) | > 100 µM (inactive) | > 100 µM (inactive) | > 100 µM (inactive) | > 100 µM (inactive) | > 100 µM (inactive) | > 100 µM (inactive) | > 100 µM (inactive) | > 100 µM (inactive) | > 100 µM (inactive) | > 100 µM (inactive)
COc1ccc(-c2c(C#N)c(N)n(C3OCC(OC(C)=O)C(OC(C)=O)C3OC(C)=O)c(=S)c2C#N)cc1 (centres undefined) | 42.4 µM (inactive) and 36.8 µM (inactive) | 32.7 µM (inactive) and 28.2 µM (inactive) | 38.5 µM (inactive) and 23.1 µM (inactive) | 16.4 µM (inactive) and 31 µM (inactive) | 36.1 µM (inactive) and 50.1 µM (inactive) | 64.4 µM (inactive) and 60.1 µM (inactive) | 34.7 µM (inactive) and 22.6 µM (inactive) | 37.8 µM (inactive) and 26.6 µM (inactive) | 17.4 µM (inactive) and 15.2 µM (inactive) | 41.2 µM (inactive) and 44.5 µM (inactive) | – | 27.5 µM (inactive) and 49.3 µM (inactive) | 44.9 µM (inactive) and 37.5 µM (inactive) | 47.3 µM (inactive) and 48.3 µM (inactive) | 45.7 µM (inactive) and 43.8 µM (inactive) | 31.4 µM (inactive) | 22.3 µM (inactive) and 40.7 µM (inactive) | 31.8 µM (inactive) and 21 µM (inactive) | – | > 100 µM (inactive)
C=C(c1ccccc1)C1ON(C)CCc2cc(OC)c(OC)cc21 (centres undefined) | > 100 µM (inactive) | > 100 µM (inactive) | > 100 µM (inactive) | > 100 µM (inactive) | > 100 µM (inactive) | > 100 µM (inactive) | > 100 µM (inactive) | > 100 µM (inactive) | > 100 µM (inactive) | 75.3 µM (inactive) | 58.7 µM (inactive) | 0.256 µM (active) | 96.4 µM (inactive) | – | > 100 µM (inactive) | 49.2 µM (inactive) | – | > 100 µM (inactive) | > 100 µM (inactive) | 42.3 µM (inactive)
O=C(O)CCO/N=C1/C(=C2/C(=O)Nc3ccccc32)Nc2ccccc21 | 21.5 µM (inactive) | 5.6 µM (inactive) | 4.97 µM (inactive) | 13.8 µM (inactive) | 18.2 µM (inactive) | 17.2 µM (inactive) | 11.2 µM (inactive) | 15.3 µM (inactive) | 23.7 µM (inactive) | 25 µM (inactive) | 36.7 µM (inactive) | 23.3 µM (inactive) | 54.5 µM (inactive) | 26.2 µM (inactive) | 40.9 µM (inactive) | 26.1 µM (inactive) | 7.18 µM (inactive) | 13.8 µM (inactive) | 32.4 µM (inactive) | 39.5 µM (inactive)
CCc1n[nH]c(=O)n1NC(=O)/C=C\C(=O)O | > 100 µM (inactive) | > 100 µM (inactive) | > 100 µM (inactive) | > 100 µM (inactive) | > 100 µM (inactive) | > 100 µM (inactive) | > 100 µM (inactive) | > 100 µM (inactive) | > 100 µM (inactive) | > 100 µM (inactive) | > 100 µM (inactive) | > 100 µM (inactive) | > 100 µM (inactive) | > 100 µM (inactive) | > 100 µM (inactive) | > 100 µM (inactive) | > 100 µM (inactive) | > 100 µM (inactive) | > 100 µM (inactive) | > 100 µM (inactive)
c1ccc2c(c1)-c1ccccc1C2NC1=NCCO1 | 28.1 µM (inactive) | 18.2 µM (inactive) | 28.5 µM (inactive) | 32.6 µM (inactive) | 18.9 µM (inactive) | 52.6 µM (inactive) | 40.6 µM (inactive) | 15.6 µM (inactive) | 26.5 µM (inactive) | 21.7 µM (inactive) | 32.8 µM (inactive) | 22.5 µM (inactive) | 13.1 µM (inactive) | 25.2 µM (inactive) | 38.8 µM (inactive) | 30 µM (inactive) | 18.8 µM (inactive) | 15.4 µM (inactive) | 28.1 µM (inactive) | –
O=c1[nH]c(Nc2nc3ccccc3[nH]2)nc2c1CCC2 | 44.7 µM (inactive) | > 100 µM (inactive) | > 100 µM (inactive) | > 100 µM (inactive) | > 100 µM (inactive) | > 100 µM (inactive) | – | > 100 µM (inactive) | > 100 µM (inactive) | > 100 µM (inactive) | > 100 µM (inactive) | > 100 µM (inactive) | > 100 µM (inactive) | 90.2 µM (inactive) | > 100 µM (inactive) | 43.6 µM (inactive) | > 100 µM (inactive) | 30 µM (inactive) | > 100 µM (inactive) | > 100 µM (inactive)
COc1ccc(CNC(=O)[C@@H]2CCCN2C(=O)[C@@H](C)N(C)C(=O)[C@H](C(C)C)N(C)C(=O)[C@@H](NC(=O)[C@H](C(C)C)N(Cc2ccccc2)Cc2ccccc2)C(C)C)c(OC)c1 (Bn2Val-V[NMeV][dNMeA]P-X32) | 3.28 µM (inactive) | 2.96 µM (inactive) | 4.04 µM (inactive) | – | 2.29 µM (inactive) | 6.15 µM (inactive) | 2.69 µM (inactive) | 2.33 µM (inactive) | 0.0561 µM (active) | 1.74 µM (inactive) | 0.0706 µM (active) | 3.19 µM (inactive) | 5.12 µM (inactive) | 3.41 µM (inactive) | 1.59 µM (inactive) | 3.71 µM (inactive) | 1.77 µM (inactive) | 1.52 µM (inactive) | 4.47 µM (inactive) | 3.44 µM (inactive)
O=C1Nc2cccc(Cl)c2/C1=C\c1c(-c2ccccc2)nc2n1CCS2 | 18 µM (inactive) | 20.4 µM (inactive) | 22.9 µM (inactive) | 15 µM (inactive) | 18.8 µM (inactive) | 19.8 µM (inactive) | 26.1 µM (inactive) | 21.3 µM (inactive) | 16.3 µM (inactive) | 20.3 µM (inactive) | 17.2 µM (inactive) | 18.4 µM (inactive) | 20.2 µM (inactive) | – | 22.8 µM (inactive) | 20.3 µM (inactive) | 20.3 µM (inactive) | 24 µM (inactive) | 13.2 µM (inactive) | 21.4 µM (inactive)
O=C1CN(c2cccc(Cl)c2)C(=O)CN1CCN1CC(=O)N(c2cccc(Cl)c2)CC1=O | > 100 µM (inactive) | > 100 µM (inactive) | > 100 µM (inactive) | > 100 µM (inactive) | > 100 µM (inactive) | > 100 µM (inactive) | > 100 µM (inactive) | > 100 µM (inactive) | > 100 µM (inactive) | > 100 µM (inactive) | – | > 100 µM (inactive) | > 100 µM (inactive) | > 100 µM (inactive) | > 100 µM (inactive) | > 100 µM (inactive) | – | > 100 µM (inactive) | > 100 µM (inactive) | > 100 µM (inactive)
CCCCCCCCCCCCC/C=C(/COCC[N+](C)(C)C)OC(C)=O.CCCCCCCCCCCCCC/C(=C/OCC[N+](C)(C)C)OC(C)=O | 1.08 µM (active) | 2.49 µM (inactive) | 1.58 µM (inactive) | 1.76 µM (inactive) | 1.48 µM (inactive) | 4.97 µM (inactive) | 3.1 µM (inactive) | 4.04 µM (inactive) | 1.64 µM (inactive) | 0.356 µM (active) | 1.71 µM (inactive) | 1.9 µM (inactive) | 5.68 µM (inactive) | 1.95 µM (inactive) | 2.44 µM (inactive) | 1.87 µM (inactive) | – | 2.54 µM (inactive) | 1.48 µM (inactive) | 2.99 µM (inactive)

— ChEMBL document CHEMBL1201862, “PubChem BioAssay data set” (2004)
